Literature values as cited in patent US9132083B2, “Delivery system comprising a silicon-containing material” (SISAF Ltd., priority 2009, dated 2015).

pKa: about 6
SMILES: [Na+].[O-][Si](O)(O)O [Na^+(OSA)^− salt]
